# Reference: ChEMBL document CHEMBL5729211, “Amine compound for inhibiting SSAO/VAP-1 and use thereof” (2022)
# pIC50: −log10 of the molar value.
# Target: T1, Amine oxidase [copper-containing] 3 (Homo sapiens, UniProt Q16853)
# T1 sequence (Q16853 whole entry): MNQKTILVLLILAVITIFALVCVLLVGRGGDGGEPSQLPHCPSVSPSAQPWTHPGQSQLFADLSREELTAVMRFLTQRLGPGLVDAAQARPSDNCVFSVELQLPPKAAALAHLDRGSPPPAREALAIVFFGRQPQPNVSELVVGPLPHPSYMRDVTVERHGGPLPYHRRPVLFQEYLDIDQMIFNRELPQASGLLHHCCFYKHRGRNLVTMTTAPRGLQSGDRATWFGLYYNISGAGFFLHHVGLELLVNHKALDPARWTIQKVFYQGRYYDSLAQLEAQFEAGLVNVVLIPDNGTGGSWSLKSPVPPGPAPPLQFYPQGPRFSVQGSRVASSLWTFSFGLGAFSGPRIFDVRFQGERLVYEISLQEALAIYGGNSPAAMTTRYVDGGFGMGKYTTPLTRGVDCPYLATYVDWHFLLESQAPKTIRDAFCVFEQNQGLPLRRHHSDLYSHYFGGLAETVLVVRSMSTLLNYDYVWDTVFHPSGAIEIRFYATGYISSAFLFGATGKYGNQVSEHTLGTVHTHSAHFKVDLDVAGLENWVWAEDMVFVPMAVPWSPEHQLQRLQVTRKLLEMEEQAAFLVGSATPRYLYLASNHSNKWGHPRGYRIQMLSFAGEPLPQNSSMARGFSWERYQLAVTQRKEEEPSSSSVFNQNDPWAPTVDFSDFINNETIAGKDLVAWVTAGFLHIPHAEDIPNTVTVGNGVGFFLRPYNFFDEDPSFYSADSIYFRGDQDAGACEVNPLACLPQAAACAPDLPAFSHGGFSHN
# Assay: Biological Assay: 1. Determination of Inhibitory Activity of Human Recombinant SSAO/VAP-1Test purpose: The following methods can be used to determine the inhibitory activity of the compounds described in the examples of the invention for human recombinant SSAO/VAP-1.Test Materials:Human recombinant SSAO/VAP-1 (VAP-1, human) purchased from Sigma, Cat. No. SRP6241;Amplex® Red Monoamine Oxidase Assay Kit purchased from Invitrogen, Cat. No. A12214;384-Well plate purchased from Corning, Cat. No. 6005174;Amplex® Red Hydrogen PeroxidePeroxidase Assay Kit purchased from Invitrogen, Cat. No. A22188.Benzylamine hydrochloride purchased from Sigma, Cat. No. B5136-25G;DMSO (Dimethyl Sulfoxide) purchased from Sigma, Cat. No. D2650-100ML;Test Method:The test compound was dissolved in DMSO and diluted to 10 concentrations in 4-fold serial dilution. In 384 well plates, 25 μL of human recombinant SSAO/VAP-1 (1.6 μg/ml) was added to each well. 100 nL of test compounds with different concentrations were added to each well containing human recombinant SSAO/VAP-1 and incubated at room temperature for 30 min. After 30 min incubation, 25 μl of Amplex® red monoamine oxidase assay kit (containing a reaction mixture of 200 μm Amplex Red reagent, 1 U/ml HRP and 1 mm benzylamine hydrochloride) was added to the corresponding well, and incubated at room temperature and dark for 60 min. After 60 min, the relative fluorescence unit (RFU) was read by using PerkinElmer's Envision at 530-560 nm excitation and 590 nm emission. The curve was drawn by using the graph pad prism 5 software, and the IC50 value was calculated. The results were shown in table 1, wherein the compound listed in table 1 is the compound in the preparation examples with the same compound number:
row,pIC50,Structure (SMILES)
1,9.66,NC/C(=C\F)COc1ccc2c(c1)CCN(CC1CCOCC1)C2=O
2,8.84,COc1ncc(N2CCc3cc(OC/C(=C/F)CN)ccc3C2=O)cn1
3,9.11,NC/C(=C/F)COc1ccc2c(c1)CCN(c1ccccn1)C2=O
